Experimental data taken from patent CN108129355A, “一种盐酸益母草碱α晶型及其制备方法和应用” (Jingde Xinxing Biological Technology Co Ltd, priority 2018, dated 2018).

How the values were obtained:
Assay type in all cases: physicochemical
[1] = High humidity (RH92.5%) stability
[2] = High temperature (60℃) stability
[3] = Solubility test (溶解度试验); conditions: stated in words; values of table 2 missing in this copy
[4] = Strong light (4500lx±500lx) stability

## COc1cc(C(=O)OCCCCNC(=N)N)cc(OC)c1O [盐酸益母草碱α晶型, 盐酸益母草碱]
[1]
  crystal form stability (X-ray powder diffraction result): X-射线粉末衍射结果均未发生变化,仍保持原本晶型
[2]
  crystal form stability (X-ray powder diffraction result): X-射线粉末衍射结果均未发生变化,仍保持原本晶型
[3]
  solubility: 较好的溶解性
[4]
  crystal form stability (X-ray powder diffraction result): X-射线粉末衍射结果均未发生变化,仍保持原本晶型
